The target in one assay is T1, Fc-MAG(d1-3) (Mus musculus, UniProt P20917).
T1 sequence (P20917 20-325 limits assumed): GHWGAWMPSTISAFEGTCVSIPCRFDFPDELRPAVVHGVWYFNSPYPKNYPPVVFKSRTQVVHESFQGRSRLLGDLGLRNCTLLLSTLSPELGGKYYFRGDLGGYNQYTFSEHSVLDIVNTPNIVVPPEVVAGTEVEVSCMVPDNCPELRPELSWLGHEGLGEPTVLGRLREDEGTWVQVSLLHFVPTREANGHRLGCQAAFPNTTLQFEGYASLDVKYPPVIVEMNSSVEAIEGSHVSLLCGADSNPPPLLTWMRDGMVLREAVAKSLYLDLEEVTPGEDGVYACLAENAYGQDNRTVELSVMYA
Description: surface plasmon resonance (BIACORE 3000), Fc-MAG(d1-3) immobilized by protein A. The class given is binding, murine. As to the method:
For the in situ click chemistry experiment (Lewis, 2002; Bourne, 2004; […], 2005), Fc-MAG(d1-3) (Crocker, 1996) (8.77 μM) was incubated with a mixture of the four substituted first-site ligands 14a-d (each 40 μM) and the two substituted second-site ligands 22, 26 (each 800 μM) in phosphate buffer (pH 7.4) at 37° C. for 24 h. The different concentrations of the first- and second-site ligands reflect their affinities in the low micro- and millimolar range. […] To exclude that false positives are formed during incubation, two control experiments were performed. In the first, MAG was replaced by bovine serum albumin. In the second, no protein was added. In both experiments, no triazole formation could be observed. The protein included the Fc portion of human immunoglobulin IgG1 and the three N-terminal domains of murine MAG (for its preparation, see Crocker & Kelm (1996)). […] The KD analyses were performed at 25° C. on a BIACORE 3000 surface plasmon resonance-based optical biosensor (Biacore AB, Uppsala, Sweden). Protein A (Sigma, Basel) was immobilized onto a CM5 sensor chip (Biacore AB, research grade) using standard amine coupling. All data processing and equilibrium binding constant determinations were accomplished with Scrubber© (BioLogic Software, Campbell, Australia, Version 1.1g). […] The equilibrium binding constants KD were calculated using a 1:1 binding model. […]

Another assay has as its target T2, MAG (Mus musculus, UniProt P20917).
T2 sequence (P20917 20-627): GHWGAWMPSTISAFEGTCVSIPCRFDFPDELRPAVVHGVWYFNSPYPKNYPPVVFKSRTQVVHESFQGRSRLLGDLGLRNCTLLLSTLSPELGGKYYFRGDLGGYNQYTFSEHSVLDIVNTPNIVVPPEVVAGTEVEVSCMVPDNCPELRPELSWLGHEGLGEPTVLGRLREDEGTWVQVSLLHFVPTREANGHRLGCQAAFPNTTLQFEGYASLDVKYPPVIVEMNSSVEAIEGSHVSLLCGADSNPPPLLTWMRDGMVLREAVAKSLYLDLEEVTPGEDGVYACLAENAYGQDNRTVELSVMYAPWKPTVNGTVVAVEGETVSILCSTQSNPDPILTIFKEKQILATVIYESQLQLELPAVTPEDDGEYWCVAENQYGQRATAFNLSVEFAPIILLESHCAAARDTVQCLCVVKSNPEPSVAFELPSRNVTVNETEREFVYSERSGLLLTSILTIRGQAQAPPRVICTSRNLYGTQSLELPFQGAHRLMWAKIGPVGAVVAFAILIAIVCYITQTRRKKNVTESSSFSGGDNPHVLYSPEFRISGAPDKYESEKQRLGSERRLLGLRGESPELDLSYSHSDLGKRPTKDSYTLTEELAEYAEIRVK
Description: NMR second-site screening with spin-labeled first-site ligand 2 (Jahnke method). The conditions noted are these: H-NMR in the presence of spin-labeled analogue 2; indicates binding proximate (radius of 15 to 20 Å) to the Tempo spin label.

As usually defined, the Kd is the equilibrium constant for the complex coming apart. Low values mean a tighter complex, high ones a looser complex.

For the molecule `O=[N+]([O-])c1ccc2[nH]ccc2c1` [compound 15, 5-nitro-1H-indole], the affinity entry at Fc-MAG(d1-3) (surface plasmon resonance experiment) is on record as “low millimolar range”. Besides, the paramagnetic relaxation enhancement entry on MAG is reported as “enhanced relaxation was observed”.
At Fc-MAG(d1-3) (SPR, Fc-MAG(d1-3) immobilized by protein A, 25° C., 1:1 binding model), `CC(=O)NC1C(O)CC(OCc2cn(CCCc3c[nH]c4ccc([N+](=O)[O-])cc34)nn2)(C(=O)O)OC1C(O)C(O)CNC(=O)c1ccccc1` [compound 27, 1-(5-nitro-1H-indol-3-yl-propyl)-4-{sodium [5-acetamido-9-benzamido-3,5,9-trideoxy-D-glycero-α-D-galacto-2-nonulopyranosynate-2-O-yl}-methyl-1,2,3]-triazole] gave a Kd of 190 nM.

Source of the values: US20090239760A1, “Method for the Identification of New Leads for Drug Candidates” (UNIVERSITY OF BASEL, priority 2006, published 2009).
